In ChEMBL document CHEMBL3885861, “Open TG-GATES”:

Species on record: Rattus norvegicus
Experiment: Open TG-GATES - Regimen: Daily Repeat
Format: toxicity, organism-based, Sprague-Dawley
Parameters: regimen Daily Repeat, gender Male, age 6 weeks
Settings: in vivo, po, 0 mg/kg, route gavage, dose level Control; for APTT / Bas / Eos / Fbg / Hb / Ht / Lym / MCH / MCHC / Mono / Neu / Plat / RBC / Ret: tissue Blood; for KIDNEY_L / KIDNEY_R / KIDNEY_TOTAL: tissue Kidney; for LIVER: tissue Liver; for ALP / ALT / AST / BUN / CRE / Ca / Cl / DBIL / GLC / IP / K / LDH / Na / PL / RALB / TBIL / TC / TG / TP / gamma-GTP: tissue Plasma

Work on `O=C(CCCN1CCC(O)(c2ccc(Cl)cc2)CC1)c1ccc(F)cc1` [HALOPERIDOL] yielded a TERMINAL_BW (72 h, time 3 day) of 226.4 g, an APTT (72 h, time 3 day) of 16.5 s and a Bas (72 h, time 3 day) of 0%. The Eos (72 h, time 3 day) was 0.2%, the Fbg (72 h, time 3 day) was 223.2 mg/dL and the Hb (72 h, time 3 day) was 13.8 g/dL. It also gave a Ht (72 h, time 3 day) of 41.1%, a Lym (72 h, time 3 day) of 84.4% and an MCH (72 h, time 3 day) of 21.8 pg. The MCHC (72 h, time 3 day) was 33.6%, the Mono (72 h, time 3 day) was 4% and the Neu (72 h, time 3 day) was 11.4%. For the same compound, the Plat (72 h, time 3 day) was 119.4 x10_4/uL, the RBC (72 h, time 3 day) was 632.8 x10_4/ul and the Ret (72 h, time 3 day) was 7.7%. For the same compound, the KIDNEY_L (72 h, time 3 day) was 1 g, the KIDNEY_R (72 h, time 3 day) was 1 g and the KIDNEY_TOTAL (72 h, time 3 day) was 2 g. It also gave an LIVER (72 h, time 3 day) of 11.1 g, an ALP (72 h, time 3 day) of 915.2 IU/L and an ALT (72 h, time 3 day) of 38 IU/L. The AST (72 h, time 3 day) was 59.6 IU/L, the BUN (72 h, time 3 day) was 19.2 mg/dL and the CRE (72 h, time 3 day) was 0.6 mg/dL. The Ca (72 h, time 3 day) was 11.2 mg/dL, the Cl (72 h, time 3 day) was 105.8 meq/L and the DBIL (72 h, time 3 day) was 0 mg/dL. For the same compound, the GLC (72 h, time 3 day) was 191.2 mg/dL, the IP (72 h, time 3 day) was 8.4 mg/dL and the K (72 h, time 3 day) was 4.9 meq/L. The LDH (72 h, time 3 day) was 91.8 IU/L, the Na (72 h, time 3 day) was 139.2 meq/L and the PL (72 h, time 3 day) was 166.2 mg/dL. The RALB (72 h, time 3 day) was 4 g/dL, the TBIL (72 h, time 3 day) was 0.2 mg/dL and the TC (72 h, time 3 day) was 88 mg/dL. It also gave a TG (72 h, time 3 day) of 96.6 mg/dL, a TP (72 h, time 3 day) of 6 g/dL and a gamma-GTP (72 h, time 3 day) of 1.6 IU/L. It also gave a TERMINAL_BW ([…], time 7 day) of 261.8 g, a TERMINAL_BW ([…], time 14 day) of 307.2 g and a TERMINAL_BW ([…], time 28 day) of 396.3 g. It also gave an APTT ([…], time 7 day) of 16.9 s, a Bas ([…], time 7 day) of 0% and an Eos ([…], time 7 day) of 0.8%. It also gave a Fbg ([…], time 7 day) of 216.4 mg/dL, a Hb ([…], time 7 day) of 13.9 g/dL and a Ht ([…], time 7 day) of 41.8%. It also gave a Lym ([…], time 7 day) of 80.4%, an MCH ([…], time 7 day) of 21.2 pg and an MCHC ([…], time 7 day) of 33.3%. For the same compound, the Mono ([…], time 7 day) was 4.8%, the Neu ([…], time 7 day) was 14% and the Plat ([…], time 7 day) was 104.8 x10_4/uL. The RBC ([…], time 7 day) was 658 x10_4/ul, the Ret ([…], time 7 day) was 5.8% and the APTT ([…], time 14 day) was 16.2 s. The Bas ([…], time 14 day) was 0%, the Eos ([…], time 14 day) was 0.2% and the Fbg ([…], time 14 day) was 224.2 mg/dL. For the same compound, the Hb ([…], time 14 day) was 14.6 g/dL, the Ht ([…], time 14 day) was 43.8% and the Lym ([…], time 14 day) was 78.4%. The MCH ([…], time 14 day) was 20.4 pg, the MCHC ([…], time 14 day) was 33.3% and the Mono ([…], time 14 day) was 5.2%. The Neu ([…], time 14 day) was 16.2%, the Plat ([…], time 14 day) was 107.4 x10_4/uL and the RBC ([…], time 14 day) was 716 x10_4/ul. It also gave a Ret ([…], time 14 day) of 3.7%, an APTT ([…], time 28 day) of 16.6 s and a Bas ([…], time 28 day) of 0%. The Eos ([…], time 28 day) was 0.8%, the Fbg ([…], time 28 day) was 235.8 mg/dL and the Hb ([…], time 28 day) was 15.1 g/dL. It also gave a Ht ([…], time 28 day) of 45.3%, a Lym ([…], time 28 day) of 80.8% and an MCH ([…], time 28 day) of 19.2 pg. The MCHC ([…], time 28 day) was 33.4%, the Mono ([…], time 28 day) was 5.8% and the Neu ([…], time 28 day) was 12.6%. The Plat ([…], time 28 day) was 105.5 x10_4/uL, the RBC ([…], time 28 day) was 787.6 x10_4/ul and the Ret ([…], time 28 day) was 3%. For the same compound, the KIDNEY_L ([…], time 7 day) was 1.1 g, the KIDNEY_R ([…], time 7 day) was 1.1 g and the KIDNEY_TOTAL ([…], time 7 day) was 2.1 g. It also gave a KIDNEY_L ([…], time 14 day) of 1.2 g, a KIDNEY_R ([…], time 14 day) of 1.2 g and a KIDNEY_TOTAL ([…], time 14 day) of 2.4 g. It also gave a KIDNEY_L ([…], time 28 day) of 1.4 g, a KIDNEY_R ([…], time 28 day) of 1.4 g and a KIDNEY_TOTAL ([…], time 28 day) of 2.8 g. The LIVER ([…], time 7 day) was 12.9 g, the LIVER ([…], time 14 day) was 14 g and the LIVER ([…], time 28 day) was 16.7 g. The ALP ([…], time 7 day) was 874.8 IU/L, the ALT ([…], time 7 day) was 33.4 IU/L and the AST ([…], time 7 day) was 59.4 IU/L. It also gave a BUN ([…], time 7 day) of 20.2 mg/dL, a CRE ([…], time 7 day) of 0.5 mg/dL and a Ca ([…], time 7 day) of 11.2 mg/dL. It also gave a Cl ([…], time 7 day) of 104.8 meq/L, a DBIL ([…], time 7 day) of 0.006 mg/dL and a GLC ([…], time 7 day) of 196 mg/dL. For the same compound, the IP ([…], time 7 day) was 7.4 mg/dL, the K ([…], time 7 day) was 4.6 meq/L and the LDH ([…], time 7 day) was 93 IU/L. For the same compound, the Na ([…], time 7 day) was 138.8 meq/L, the PL ([…], time 7 day) was 169.8 mg/dL and the RALB ([…], time 7 day) was 3.9 g/dL. The TBIL ([…], time 7 day) was 0.3 mg/dL, the TC ([…], time 7 day) was 83 mg/dL and the TG ([…], time 7 day) was 134.4 mg/dL. The TP ([…], time 7 day) was 5.9 g/dL, the gamma-GTP ([…], time 7 day) was 1.8 IU/L and the ALP ([…], time 14 day) was 784.8 IU/L. For the same compound, the ALT ([…], time 14 day) was 32.6 IU/L, the AST ([…], time 14 day) was 62.4 IU/L and the BUN ([…], time 14 day) was 21.2 mg/dL. For the same compound, the CRE ([…], time 14 day) was 0.5 mg/dL, the Ca ([…], time 14 day) was 10.7 mg/dL and the Cl ([…], time 14 day) was 106.8 meq/L. It also gave a DBIL ([…], time 14 day) of 0.01 mg/dL, a GLC ([…], time 14 day) of 195.4 mg/dL and an IP ([…], time 14 day) of 7.4 mg/dL. For the same compound, the K ([…], time 14 day) was 4.8 meq/L, the LDH ([…], time 14 day) was 93.2 IU/L and the Na ([…], time 14 day) was 138.2 meq/L. The PL ([…], time 14 day) was 161.2 mg/dL, the RALB ([…], time 14 day) was 3.9 g/dL and the TBIL ([…], time 14 day) was 0.3 mg/dL. For the same compound, the TC ([…], time 14 day) was 76.2 mg/dL, the TG ([…], time 14 day) was 149 mg/dL and the TP ([…], time 14 day) was 6.2 g/dL. The gamma-GTP ([…], time 14 day) was 1.4 IU/L, the ALP ([…], time 28 day) was 558 IU/L and the ALT ([…], time 28 day) was 30.4 IU/L. It also gave an AST ([…], time 28 day) of 58.8 IU/L, a BUN ([…], time 28 day) of 22.2 mg/dL and a CRE ([…], time 28 day) of 0.6 mg/dL. The Ca ([…], time 28 day) was 11.1 mg/dL, the Cl ([…], time 28 day) was 105 meq/L and the DBIL ([…], time 28 day) was 0.052 mg/dL. It also gave a GLC ([…], time 28 day) of 177.4 mg/dL, an IP ([…], time 28 day) of 7.8 mg/dL and a K ([…], time 28 day) of 4.6 meq/L. For the same compound, the LDH ([…], time 28 day) was 79.4 IU/L, the Na ([…], time 28 day) was 140 meq/L and the PL ([…], time 28 day) was 160.8 mg/dL. The RALB ([…], time 28 day) was 4.1 g/dL, the TBIL ([…], time 28 day) was 0.2 mg/dL and the TC ([…], time 28 day) was 75.2 mg/dL. The TG ([…], time 28 day) was 176.2 mg/dL, the TP ([…], time 28 day) was 6.6 g/dL and the gamma-GTP ([…], time 28 day) was 1.6 IU/L.
